The values that follow come from US10906884B2, “Benzodiazepine derivatives as CCK2/gastrin receptor antagonists” (Trio Medicines Ltd, priority 2014, dated 2021).

One data set addresses T1, CCK1 (human) (Homo sapiens, UniProt P32238).
T1 construct: expressed in transfected cells; host or cells: CHO cells
T1 sequence (P32238 1-428): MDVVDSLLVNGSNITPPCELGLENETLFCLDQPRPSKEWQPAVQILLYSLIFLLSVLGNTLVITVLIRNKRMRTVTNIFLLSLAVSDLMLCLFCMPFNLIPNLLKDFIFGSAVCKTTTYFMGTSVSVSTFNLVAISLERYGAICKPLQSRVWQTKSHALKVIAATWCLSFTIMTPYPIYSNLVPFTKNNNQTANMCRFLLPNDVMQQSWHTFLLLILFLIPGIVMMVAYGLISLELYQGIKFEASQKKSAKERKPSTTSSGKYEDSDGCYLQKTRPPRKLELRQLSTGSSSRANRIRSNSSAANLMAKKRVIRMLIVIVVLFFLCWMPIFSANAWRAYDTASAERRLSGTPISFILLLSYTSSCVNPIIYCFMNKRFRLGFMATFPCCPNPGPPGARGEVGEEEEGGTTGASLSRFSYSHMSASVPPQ
In words: CCK1 receptor functional assay (antagonist effect, cAMP, HTRF). The format is cell-based. To be noted: stimulus CCK-8s 300 nM, 10 min 37° C., CHO cells. An excerpt: (§1) (TR2) and (TR3) were compared with YF476 and YM022 in CCK1 and CCK2 receptor functional assays with the following assay criteria.
(§2) The potency of the antagonists is expressed as IC50, the concentration of antagonist that causes a half-maximum inhibition of the control agonist response. The affinity of the antagonist for the receptor is expressed as KB, the concentration of antagonist, which would occupy 50% of the receptors at equilibrium.
(In general: In TR-FRET formats the signal depends on donor and acceptor labels being close together.)

For another data set, the system named is panel of 80 receptors. Nature of the data set: Receptor binding screen, radiolabelled ligands, scintillation counting. The note with it: other than CCK2 and CCK1. As for the experimental part:
The potential of (TR2) and (TR3) to bind to other cellular and nuclear receptors was tested in a panel of 80 receptors. The assay used radiolabelled receptor ligands (agonist or antagonist, depending on the receptor), and the ability of the test compounds to inhibit ligand binding was measured by scintillation counting.

The subject of data set [1] is AGSGR cells (gastric adenocarcinoma cell line transfected with human gastrin/CCK2 receptor gene). In words: Sulphorhodamine-B (SRB) proliferation assay, G17-treated cells. The data set is classed as cell-based. To be noted: G17 10 nM. Here is the method: The potency of (TR2) and (TR3) was tested in a sulphorhodamine-B (SRB) proliferation assay in a human gastric adenocarcinoma cell line stably transfected with the human gastrin/CCK2 receptor gene (AGSGR). SRB is a fluorescent dye that binds to proteins, so cells with a high rate of protein synthesis (proliferative cells) will show high levels of fluorescence in the SRB assay. […] (TR2) and (TR3) were compared with the positive controls YF476 and YM022.
On the technique in general: In SRB staining, fixed cells bind dye roughly in proportion to their protein.

Data set [2] deals with pentagastrin-stimulated gastric acid secretion. In words: Pentagastrin-stimulated gastric acid secretion in conscious rats with a chronic gastric fistula. The format is in vivo. The note with it: Rattus norvegicus, sc, read-out: ED50, inhibition of pentagastrin-stimulated gastric acid secretion. Here is the method: The effect of subcutaneous injections of YF476, (TR2) and (TR3) on pentagastrin-stimulated gastric acid secretion was tested in conscious rats with a chronic gastric fistula.

The target of data set [3] is T2, CCK2 (human) (Homo sapiens, UniProt P32239).
T2 sequence (P32239 1-447): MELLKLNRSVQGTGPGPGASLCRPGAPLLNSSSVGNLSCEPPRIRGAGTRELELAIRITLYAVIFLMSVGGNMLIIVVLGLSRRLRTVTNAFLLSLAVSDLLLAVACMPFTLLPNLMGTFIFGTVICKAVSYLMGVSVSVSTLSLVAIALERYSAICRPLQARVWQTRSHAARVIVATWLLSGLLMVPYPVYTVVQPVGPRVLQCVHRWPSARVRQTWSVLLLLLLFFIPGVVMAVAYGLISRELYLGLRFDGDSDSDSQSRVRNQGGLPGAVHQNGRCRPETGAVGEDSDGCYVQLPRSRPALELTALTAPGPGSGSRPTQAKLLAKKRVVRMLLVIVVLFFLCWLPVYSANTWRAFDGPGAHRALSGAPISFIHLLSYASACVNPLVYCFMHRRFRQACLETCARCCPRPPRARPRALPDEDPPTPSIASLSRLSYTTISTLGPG
In words: CCK2 receptor functional assay (antagonist effect, cAMP, HTRF). The format is cell-based. Also on record: expressed in transfected cells; host or cells: CHO cells. The note with it: for IC50 / Kb: stimulus CCK-8s 10 nM, 10 min 37° C., CHO cells; for IC50: read-out: CCK2 IC50; for Kb: read-out: CCK2 KB.
Excerpt: as §1, §2

A short description of data set [4]: Aqueous solubility study in Britton-Robinson's buffer (HPLC-UV). The format is physicochemical. To be noted: aqueous buffer, thermodynamic from solid, ambient temperature overnight. As for the experimental part: The test compound (2.5 mg of solid; n=1) was weighed in a clear glass vial and Britton-Robinson's buffer (0.5 mL) was added (pH 2.01, pH 3.06, pH 4.06, pH 5.08, pH 5.99, pH 6.98, and pH 8.16). The solution was agitated at ambient temperature overnight using a vial roller system, and then filtered (0.45 μm pore size; without pre-saturation). Two aliquots (50 μL) were sampled from the filtrate and diluted with one volume of 0.1 N hydrochloric acid and methanol (1:1 v/v) before analysis by HPLC-UV. A standard was prepared in DMSO at 10 mg/mL (n=1) which was then diluted 10-fold in 0.1 N hydrochloric acid and methanol (1:1 v/v) to give a 1 mg/mL solution. The concentration of test compound in the filtrate was quantified relative to the concentration standard.
Analysis was done using a gradient HPLC-UV system with a total cycle time of 6 min. The UV detection between 220 nm and 300 nm was done using a photodiode array detector.
The values given in the table above are for crystalline YF476 and (TR2-A) and amorphous (TR1).

The nature of data set [5]: Pharmacokinetics in healthy subjects, single oral dose, API in capsule. The note with it: human, in vivo, po, 100 mg. As for the experimental part: In an initial study, healthy volunteers took a single oral dose of 100 mg (TR2) as an active pharmaceutical ingredient (API) in a capsule. Plasma concentrations were measured.
In further clinical studies, healthy volunteers (n=8) took single oral doses of 5, 15, 50 and 100 mg (TR2) as an active pharmaceutical ingredient (API) in a capsule. (Capsule formulation TR2 powder (API) in a hard gelatin capsule, no excipients, no processing). Plasma concentrations were measured.
Healthy volunteers (n=8) took single oral doses of 5, 15, 25 and 50 mg (TR2-A) as API in a capsule (TR2-A (crystalline) in hard gelatin capsule with no excipient, no processing of the API). Plasma concentrations of (TR2) and (TR2-A) were measured. The area under the curve of plasma concentrations of (TR2) after a single oral dose of 50 mg of (TR2-A) API (AUC0-24 h=212.5) was about the same as that observed for a similar formulation of a single oral dose of (TR2) 100 mg (AUC0-24 h=241.5).

The nature of data set [6]: YF476 serum concentrations and bioavailability in healthy subjects (background). The format is in vivo, human. The text has this:
Bioavailability can be improved by preparing and administering a formulation of amorphous YF476, but this requires stabilisation such as in the form of a solid dispersion on hydroxypropyl methyl cellulose by spray-drying. Even with this processing, bioavailability of YF476 was still low. […] However, it would be beneficial to provide a CCK2/gastrin receptor antagonist where administration with food is not required.

Data set [7] deals with T2, CCK2 (human). To be noted: cited from earlier work.
The test system of data set [8] is gastrin-stimulated acid secretion. The note with it: oral, healthy men; cited from earlier work.
For the next data set, the system named is panic attacks. To be noted: patients; cited from earlier work.
The conditions of data set [9]: cited from earlier work.
For data set [10] the following is noted: in vivo; cited from earlier work.

A word on the IC50: it is the point on the concentration scale where inhibition reaches its midpoint. By ED50 is commonly meant the dose at which the effect has come halfway, by size or by number of responders. The Kb is the affinity of an antagonist, worked out from how it opposes an agonist. In general, solubility refers to the dissolved amount per volume that the medium holds. The AUC is concentration integrated over time. Low values mean low exposure, high ones high exposure. By AUC(0-t) is commonly meant the area under the concentration-time curve up to a stated or last time point. Low values mean low exposure, high ones high exposure.

Molecules are shown by their SMILES. In brackets after ≈: the same amount, converted by molar mass. Like-named read-outs stand apart in the source and are kept apart here.

In turn, `CNc1cccc(NC(=O)N[C@H]2N=C(c3ccccn3)c3ccccc3N(CC(=O)C(C)(C)CO)C2=O)c1` [TR3] registered an IC50 on CCK1 (human) of 8500 nM. Also, in the data set with panel of 80 receptors, the “Binding to other cellular and nuclear receptors (inhibition of ligand binding)” value is “No significant receptor binding”. Further, the “Inhibition of the anti-proliferative effects of G17” value (shortened to “Inhibition … of G17”) in data set [1] (compound 500 nM) is listed as “had the same effect”. In addition, the ED50 in [2] was 0.3 µmol/kg. For the same molecule, at CCK2 (human) [3], the “Selectivity IC50 (CCK1)/IC50 (CCK2)” value is on record as 86, the “Selectivity KB (CCK1)/KB (CCK2)” value was 108, the IC50 worked out at 99 nM and the Kb stood at 12 nM.
Consider `CNc1cccc(NC(=O)N[C@@H]2N=C(c3ccccn3)c3ccccc3N(CC(=O)C(C)(C)C)C2=O)c1` [YF476, reference compound], for which the solubility in data set [4] (pH 2.01, Britton-Robinson's buffer) turned out to be 2650 µg/mL (≈ 5320 µM); in [4] (pH 3.06, Britton-Robinson's buffer) it was 99.7 µg/mL (≈ 200 µM); in [4] (pH 4.06, Britton-Robinson's buffer) it was 5.9 µg/mL (≈ 11.8 µM); in [4] (pH 5.08, Britton-Robinson's buffer), 1.4 µg/mL (≈ 2.81 µM); in data set [4] (pH 5.99, Britton-Robinson's buffer) it was 1.3 µg/mL (≈ 2.61 µM); in data set [4] (pH 6.98, Britton-Robinson's buffer), 1.4 µg/mL (≈ 2.81 µM). Besides, the concentration in solution in data set [4] (pH 8.16, Britton-Robinson's buffer) (solubility) was 1.5 µg/mL (≈ 3.01 µM). For the same molecule, the results for the IC50 on CCK1 (human) and on CCK2 (human) [3] were 160 nM and 0.52 nM, respectively. In addition, the “Inhibition … of G17” value in data set [1] (compound 100 nM) is on record as “completely inhibited”. In addition, the ED50 in data set [2] (subcutaneous injection, conscious rats) was determined as 0.012 µmol/kg. The AUC in data set [5] came to 198 ng·h/mL. In [5], this molecule returned an AUC(0-t) of 81.3 ng·h/mL. The “Increase of bioavailability by food” value in [6] came to 1.6 fold. Further, in data set [6] (crystalline form), the Serum concentrations result was “extremely low and very variable”. Besides, the “More selective for CCK2 receptors than for CCK1 receptors (compared with YM022)” value at CCK2 (human) [7] (Semple et al. 1997) is 5 fold. Besides, at CCK2 (human) [3], the “Selectivity IC50 (CCK1)/IC50 (CCK2)” value is 308. Moreover, at CCK2 (human) [3], the “Selectivity KB (CCK1)/KB (CCK2)” value was 375. Also, on CCK2 (human) [3], the Kb came to 0.064 nM.
Take `Cc1cccc(NC(=O)N[C@@H]2N=C(c3ccccc3)c3ccccc3N(C)C2=O)c1` [L-365,260]: at CCK2 (human) [7], the “Affinity at CCK2 receptors” value is “nanomolar” and the “Selectivity versus the CCK1 receptor” value was 140 fold. Further, the “Inhibition of gastrin-stimulated acid secretion” value in [8] is “only modest and short lasting inhibition”. Also, the Limiting panic attacks result in the data set with panic attacks is reported as “ineffective”. In addition, the Aqueous solubility result in [9] was “low”. The Oral bioavailability result in data set [10] was “poor”.
Consider `CNc1cccc(NC(=O)N[C@@H]2N=C(c3ccccn3)c3ccccc3N(CC(=O)C(C)(C)CO)C2=O)c1` [TR2, (R)-1-[1-(4-Hydroxy-3,3-dimethyl-2-oxo-butyl)-2-oxo-5-pyridin-2-yl-2,3-dihydro-1H-benzo[e][1,4]diazepin-3-yl]-3-(3-methylamino-phenyl)-urea], for which the half-inhibitory concentration (IC50) against CCK1 (human) worked out at 1000 nM. Moreover, the “Binding to other cellular and nuclear receptors (inhibition of ligand binding)” value with panel of 80 receptors is “No significant receptor binding”. The “Inhibition … of G17” value in data set [1] (compound 100 nM) is “completely inhibited”. In data set [2], the ED50 turned out to be 0.03 µmol/kg. Also, in [5], the AUC was determined as 439 ng·h/mL, the AUC(0-t) is 242 ng·h/mL and the “Mean AUC0-24 h of plasma concentrations” value is listed as 241.5 ng·h/mL. Besides, at CCK2 (human) [3], the “Selectivity IC50 (CCK1)/IC50 (CCK2)” value is given as 400, the “Selectivity KB (CCK1)/KB (CCK2)” value was determined as 484, the IC50 was 2.5 nM and the Kb turned out to be 0.31 nM. Besides, at CCK2 (human) [3] (relative to YF476), the “Affinity for the CCK2 receptor, fold lower than that of YF476” value is on record as “about 5 fold” and the “Selectivity for CCK2 over CCK1 receptor, higher than the selectivity of YF476” value is on record as 30%. The “Potency in CCK2 assay, fold less potent than YF476 and YM022” value at CCK2 (human) [3] (relative to YF476 and YM022) is on record as “about 5 fold”. For the same molecule, the “Affinity for the CCK2 receptor relative to YM022” value on CCK2 (human) [3] (relative to YM022) is given as “twice that of YM022”.
